Measurements published in patent US20200282009A1, “METHODS OF TREATING DISEASES ASSOCIATED WITH VASCULAR SMOOTH MUSCLE CELL PROLIFERATION” (BioLineRx Ltd., priority 2017, published 2020).
[ ]: non-standard residue; d: D form. The star is where a group is joined. Benzoyl(4-F) = O=C(c1ccc(F)cc1)*; Cit = NC(=O)NCCC[C@H](N)C(=O)O

What was measured:
[1] = test system: Ki67, Cyclin D1, BCL-2; experiment: Immunohistochemistry of xenograft tumor sections; assay type: in vivo, NSG mice
Method: For histological analysis, tumor tissue was cut into […] sections, deparaffinized with xylene, and hydrated through graded ethanol. Endogenous peroxidase was blocked by incubation for 5 minutes in 3% H2O2. A 25-mM citrate buffer (pH 6.0) was used for antigen retrieval, cooked in a pressure cooker for 20 minutes, and left to cool for 30 minutes at room temperature. Slides were washed in Optimax (Pharmatrade) and incubated with primary Ab diluted in CAS-Block (Zymed Laboratories). For Ki67 1:100 (Thermo Scientific), for CXCR4 anti-human CXCR4 monoclonal antibody clone 12G5 1:100 (R&D), for CXCL12 monoclonal CXCL12 antibody 79018 (R&D), for BCL-2 monoclonal BCL-2 antibody clone 124 (cell marque) and for cyclinD1 monoclonal BCL-1 antibody clone sp4 (spring). Staining overnight at 4° C. For all stainings, a conjugated horseradish peroxidase secondary Ab anti mouse or anti rabbit (Envision; Dako) was used for 30 minutes and developing was done with diaminobenzidine for 5 minutes followed by counterstaining with hematoxylin. For ki67, BCL-2 and Cyclin D1, staining levels were quantified using the Image Pro Analyzer image analysis software.
(§1) Human SK-N-BE(2) cells were orthotopically injected into the left adrenal gland of 6-8 weeks old NSG mice. A 27-gauge needle was introduced through the left adrenal fat pad and 5×10∧5 cells/20 μl PBS were inoculated to the adrenal gland. NSG mice were maintained under defined flora conditions at the Hebrew University Pathogen-Free Animal Facility. Tumor growth and volume were monitored bi-weekly by using T2-weighted MRI until tumors reached the ethical limit volume and mice were randomized to drug-treated or control mice. Mice in the treated group were subjected to 2 treatment protocols. In the first treatment protocol BL-8040 (400 μg) was injected daily, starting three days following inoculation, and was continued for 35 days. In the second treatment protocol mice were monitored for 21 days. As of day 7, mice were treated with a daily injection of BL-8040 (400 μg) for 14 consecutive days.

[2] = test system: SK-N-BE(2)-CXCR4 cells; experiment: Cell survival assay (PI staining, FACS); assay type: cell-based, human; details: SK-N-BE(2)-CXCR4 vs native cell line; 0, 10 and 20 μM, 24 hours
Method: A total of 1×10^5 cells/mL were cultured in 24-well plates with […] RPMI 1640 medium supplemented with 10% FCS. 24 hours later, the medium was changed to RPMI 1640 supplemented with either 1% FCS, with BL-8040 or AMD3100 or ABT199. Then 24 hours later, the cells were harvested, washed, and stained with PI (Sigma). The number of live cells was counted and analyzed using FACS analysis.
In order to stably overexpress CXCR4, SK-N-BE(2) cells were transduced with the lentiviral bicistronic vector harboring a CXCR4 expression cassette. This was done using a three-plasmid system: pHR′-CMVCXCR4-IRES-GFP-WPRE; envelope coding plasmid VSV-G and a packaging construct CMVDR8.91 according to previously published protocol (23). For transduction of SK-N-BE(2) cells, 1 ml of viral supernatant was used, which is equivalent to an m.o.i. of ˜9.

[3] = test system: CXCR4-expressing malignancies; details: multiple myeloma, AML, CML, non-small cell lung cancer, metastatic breast cancer; cited from earlier work
[4] = test system: SK-N-BE(2) cells; experiment: Soft agar colony assay; assay type: cell-based, human; details: BL-8040 20 μM or anti-CXCR4 1 μg/ml, 14 days
Method: (§2) An agar base layer was prepared as follows: 45 mL RPMI plus 12% FCS was mixed with 15 mL RPMI 32 plus 12% FCS and 15 mL 2.5% agar in double-distilled water. The tumor cells were suspended in RPMI plus 10% FCS. Cell suspension was mixed in a ratio of 1:3 with the agar base solution. This mixture was then plated on top of a preformed solid agar base. CXCL12 (100 ng/mL) or BL-8040 (20 μM) or anti-CXCR4 (1 μg/ml) were added to the mixture. Fourteen days later, the number of colonies was counted in 10 different fields.

[5] = test system: Shy-SY5Y cells; experiment: Soft agar colony assay; assay type: cell-based, human; details: BL-8040 20 μM or anti-CXCR4 1 μg/ml, 14 days
Method: as §2

[6] = test system: BCL-2, cycD1, pERK in Shy-SY5Y cells; experiment: Western blot analysis of treated cells; assay type: cell-based, human; details: 20 μM, 24 hours
[7] = molecular target: CXCR4 receptor (Homo sapiens, UniProt P61073); details: Peled et al. 2012; cited from earlier work
Chain of CXCR4 receptor (P61073 whole entry): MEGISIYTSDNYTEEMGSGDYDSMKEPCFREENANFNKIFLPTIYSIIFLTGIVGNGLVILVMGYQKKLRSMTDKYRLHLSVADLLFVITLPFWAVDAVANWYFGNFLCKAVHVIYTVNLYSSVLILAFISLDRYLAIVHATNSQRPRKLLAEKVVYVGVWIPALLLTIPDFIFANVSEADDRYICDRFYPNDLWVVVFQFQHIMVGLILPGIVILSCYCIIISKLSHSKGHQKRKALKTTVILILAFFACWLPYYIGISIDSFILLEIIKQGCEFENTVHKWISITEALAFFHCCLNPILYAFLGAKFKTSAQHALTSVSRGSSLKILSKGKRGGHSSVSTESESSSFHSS

[8] = test system: miR-15a, miR-16-1, BCL-2, CCND1; experiment: qPCR of RNA from xenograft tumors; assay type: in vivo, NSG mice; details: treated vs un-treated tumors
Method: (§3) Total RNA from various cell lines and mouse tissues was isolated using Trizol reagent (Invitrogen) according to the manufacture's protocol, followed by DNaseI treatment using the DNaseI Kit where needed (Ambion). The concentrations were measured by Nanodrop (ND spectrophotometer) and the integrity was analyzed by gel electrophoreses on 1% agarose gel.
(§4) cDNA was synthesized from 0.5-1 μg total RNA using the Quanta Biosciences qScript™ cDNA Synthesis Kit (95047-100) for mRNA analysis, and using the qScript™ microRNA cDNA Synthesis Kit (95107-100) for miRNAs analysis. Quantiative PCR (qPCR) of miRNAs and mRNA was performed using the CFX384, C1000 touch thermal cycler (Bio-Rad) and a SYBR Green PCR Kit: Quanta Cat. #84018 and #84071, respectively. The fold expression and statistical significance were calculated using the 2-ΔΔ Ct method. All experiments were performed in triplicate.
as §1

[9] = test system: miR-15a, miR-16-1, BCL-2, CCND1, c-myc in SK-N-BE(2) cells; experiment: qPCR of treated cells in-vitro; assay type: cell-based, human; details: 20 μM, 24 hours
Method: as §3, §4

[10] = test system: miR-15a, miR-16-1, BCL-2, CCND1, c-myc in Shy-SY5Y cells; experiment: qPCR of treated cells in-vitro; assay type: cell-based, human; details: 20 μM, 24 hours
Method: as §3, §4

## 4F-benzoyl-Arg-Arg-Nal-Cys-Tyr-Cit-Lys-DLys-Pro-Tyr-Arg-Cit-Cys-Arg-NH2 ({Benzoyl(4-F)}-RR[Nal]CY[Cit]K[dK]PYR[Cit]CR-NH2; not fully specified; printed as 4F-benzoyl-Arg-Arg-Nal-Cys-Tyr-Cit-Lys-DLys-Pro-Tyr-Arg-Cit-Cys-Arg-NH2; cysteine pairing not given here) [BL-8040]
[1]; 400 μg daily for 14 days from day 7, compared to controls
  Ki67 staining of tumor sections: reduced Ki67 staining
[1]; treated vs control sections, significant
  reduction in Cyclin D1 expression, tumor sections (IHC): 56%
[1]; treated vs control, staining weak, difference not significant
  reduction in BCL-2 staining, tumor sections (IHC): 36%
[2]
  sensitivity to BL-8040 treatment in-vitro (viability): increased sensitivity
[3]
  effects on CXCR4-expressing malignancies: toxic effects
[4]
  colony formation: reduces colony formation
[5]
  colony formation: reduces colony formation
[6]
  BCL-2 protein (western blot): reduction
  ERK phosphorylation (western blot): decreased ERK phosphorylation
  cycD1 protein (western blot): reduction
[7]
  affinity of binding to the CXCR4 receptor: high affinity
  receptor occupancy: long receptor occupancy
[8]
  BCL-2 mRNA in tumors (qPCR): significantly downregulated
  CCND1 mRNA in tumors (qPCR): significantly downregulated
[8]; n=9
  miR-15a level in tumors (qPCR): significantly elevated
  miR-16-1 level in tumors (qPCR): significantly elevated
[9]
  BCL-2 mRNA (qPCR): reduced
  CCND1 mRNA (qPCR): reduced only in the Shy-SY5Y cells
  c-myc mRNA (qPCR): reduced significantly
  miR-15a level (qPCR): significant increase
  miR-16-1 level (qPCR): not miR-16-1
[10]
  BCL-2 mRNA (qPCR): reduced
  CCND1 mRNA (qPCR): reduced only in the Shy-SY5Y cells
  c-myc mRNA (qPCR): reduced significantly
  miR-15a level (qPCR): significant increase
  miR-16-1 level (qPCR): not miR-16-1
